Literature values as cited in US12171237B2, “Insect repelling compositions and methods of manufacture thereof” (priority 2019, dated 2024).
Entries after “also recorded” stand apart in the source; their conditions may differ. Read-outs that look alike come from different tables or passages of the source.

Assays:
[1] = test system: Cx. pipiens pallens, Cx. pipiens quinquefasciatus
female Ae. aegypti = conditions: Human-bait assay
Ae. aegypti = conditions: 1 h, 1.92 μg·cm^−2
Ae. albopictus = conditions: 1 h, 1.92 μg·cm^−2
Mosquito = conditions: d-α-pinene
[2] = test system: female Cx. pipiens pallens
female Ae. albopictus = conditions: spatial repellent, 0.25 μg·cm^−2, after 48 h exposure

Row | SMILES | repellency (†) (Ae. aegypti) [%] | repellency (‡) (Ae. albopictus) [%] | repellency (female Ae. aegypti; 1.4 mg·cm^−2) | other results
1 | CC(C)=CCC/C(C)=C/C=O [Geranial] | – | – | – | blood-sucking by mosquitoes reduced by ([1]; at 0.2 mg·cm^−2, after 1 h): 10%; blood-sucking by mosquitoes reduced by ([1]; at 0.2 mg·cm^−2, after 2 h): 15%; blood-sucking by mosquitoes reduced by ([1]; at 0.2 mg·cm^−2, after 3 h): 18%
2 | CCCCCCCC/C=C\CCCCCCCC(=O)O [Oleic acid] | – | – | – | repellency (female Ae. aegypti; 0.4 mg·cm^−2, after 1 h): 0.4 mg · cm^−2 = 52% repellency after 1 h^a
3 | CC1=CCC(C(C)C)=CC1 [γ-Terpinene] | 60 | 72 | – | –
4 | CC1=CCC2CC1C2(C)C (stereo not drawn) [α-Pinene] | – | – | – | protection (Mosquito): d-α-pinene , 2 h protection
5 | C=CC(C)(O)CCC=C(C)C (racemic) [Linalool] | – | – | ^a1.4 mg (±)-linalool · cm^−2 = 67% repellency | –
6 | CC1=CCC(O)(C(C)C)CC1 (centres unmarked) [Terpinen-4-ol] | 92 | 85 | ^a1.4 mg · cm^−2 = 83% repellency | –
7 | C=CCc1ccc(O)c(OC)c1 [Eugenol] | – | – | – | Repellency (in words) [2]: high repellency
8 | CC(C)=CCCC(C)CCO (centres unmarked) [Citronellol] | – | – | – | Repellency (in words) (female An. gambiae): repellent component; also recorded: feeding deterrent/repellent, spatial repellent/inhibitor
9 | CC1=CC=C(C(C)C)CC1 [α-Terpinene] | 68 | 55 | ^a1.4 mg · cm^−2 = 15% repellency | –
10 | CC(C)=CCC/C(C)=C/CO [Geraniol] | – | – | – | (reversible) inhibition of host-seeking (female Ae. albopictus): spatial repellent: 0.25 μg · cm^−2 ca. 100% (reversible)
